Conditions: 293.15 K, Liquid, Vibrating tube method

FC(C(F)(F)F)C(F)(F)F [1,1,1,2,3,3,3-heptafluoropropane]
Conditions	mass density [kg/m3]
23692 kPa	1521
23735 kPa	1521.1
23815 kPa	1521.5
23852 kPa	1521.6
23883 kPa	1521.6
23925 kPa	1521.8
23962 kPa	1521.9
23986 kPa	1522.1
24019 kPa	1522.1
24048 kPa	1522.3
24087 kPa	1522.4
24120 kPa	1522.5
24149 kPa	1522.6
24187 kPa	1522.7
24229 kPa	1522.8
24263 kPa	1523
24297 kPa	1523
24326 kPa	1523.2
24354 kPa	1523.2
24393 kPa	1523.3
24422 kPa	1523.3
24451 kPa	1523.5
24485 kPa	1523.6
24524 kPa	1523.8
24553 kPa	1523.9
24587 kPa	1524.1
24630 kPa	1524.2
24659 kPa	1524.3
24698 kPa	1524.5
24728 kPa	1524.6
24757 kPa	1524.6
24786 kPa	1524.7
24816 kPa	1524.7
24851 kPa	1524.9
24886 kPa	1525
24920 kPa	1525.2
24949 kPa	1525.2
24991 kPa	1525.5
25030 kPa	1525.6
25059 kPa	1525.6
25097 kPa	1525.8
25136 kPa	1525.9
25165 kPa	1526.1
25199 kPa	1526.1
25229 kPa	1526.1
25268 kPa	1526.4
25297 kPa	1526.4
25326 kPa	1526.6
25360 kPa	1526.8
25393 kPa	1526.6
25438 kPa	1526.9
25466 kPa	1527
25496 kPa	1527.2
25530 kPa	1527.2
25569 kPa	1527.4
25594 kPa	1527.4
25639 kPa	1527.4
25678 kPa	1527.7
25708 kPa	1527.9
25747 kPa	1527.9
25791 kPa	1528.1
25816 kPa	1528.2
25845 kPa	1528.1
25889 kPa	1528.4
25923 kPa	1528.5
25958 kPa	1528.6
25994 kPa	1528.8
26024 kPa	1528.9
26068 kPa	1529
26112 kPa	1529.1
26141 kPa	1529.3
26181 kPa	1529.4
26220 kPa	1529.5
26250 kPa	1529.5
26284 kPa	1529.7
26319 kPa	1529.8
26349 kPa	1529.9
26391 kPa	1530.1
26430 kPa	1530.1
26455 kPa	1530.3
26504 kPa	1530.5
26534 kPa	1530.6
26570 kPa	1530.6
26610 kPa	1530.7
26646 kPa	1530.8
26682 kPa	1530.9
26717 kPa	1531.1
26753 kPa	1531.3
26784 kPa	1531.3
26824 kPa	1531.4
26864 kPa	1531.6
26899 kPa	1531.6
26939 kPa	1531.8
26979 kPa	1532
27009 kPa	1532.1
27045 kPa	1532.2
27080 kPa	1532.3
27115 kPa	1532.4
27151 kPa	1532.6
27188 kPa	1532.6
27224 kPa	1532.8
27265 kPa	1532.9
27302 kPa	1533.1

Reference: the NIST ThermoML archive (doi:10.1021/je700260f)
